From patent publication US9085593B2, “Therapeutic agent for arthrosis” (SANSHO CO., LTD., priority 2011, dated 2015)
“And” between values parts separate entries of the source, which are not always exact repeats. Equal values may be shown once.

Tested on: osteoarthritis in rabbit knee
Assay: Histopathological evaluation of femur and tibia condyles, rabbit knee osteoarthritis model
Format: in vivo, rabbits (Kbs:NZW)
Set-up: key to Fibrillation and/or fissure / Lowered proteoglycan stainability / Disorganization of chondrocytes / Loss of chondrocytes / Exposure of subchondral bone / Cluster formation / Histopathological score / Loss of superficial layer / Cartilage erosion: 0: None; 1: slight; 2: mild; 3: moderate; 4: severe; key to Disorganization of chondrocytes, Mean / Loss of chondrocytes, Mean / Exposure of subchondral bone, Mean / Cluster formation, Mean / Cartilage erosion, Mean: grade 0 to +4 per item; key to Histopathological score, Mean: sum of 8 items each graded 0 to +4
Details: for Cluster formation / Disorganization of chondrocytes / Exposure of subchondral bone / Fibrillation and/or fissure / Loss of chondrocytes / Lowered proteoglycan stainability / Cartilage erosion / Loss of superficial layer / Histopathological score / Cartilage erosion, Mean / Cluster formation, Mean / Disorganization of chondrocytes, Mean / Exposure of subchondral bone, Mean / Fibrillation and/or fissure, Mean / Loss of chondrocytes, Mean / Loss of superficial layer, Mean / Lowered proteoglycan stainability, Mean / Histopathological score, Mean: day 42; for Cluster formation / Disorganization of chondrocytes / Exposure of subchondral bone / Fibrillation and/or fissure / Loss of chondrocytes / Lowered proteoglycan stainability / Cartilage erosion / Loss of superficial layer / Histopathological score: individual animals 201-206; for Cluster formation / Disorganization of chondrocytes / Exposure of subchondral bone / Fibrillation and/or fissure / Loss of chondrocytes / Lowered proteoglycan stainability / Cartilage erosion / Loss of superficial layer: grade 0-4; for Histopathological score: sum of all items; for Cartilage erosion, Mean / Cluster formation, Mean / Disorganization of chondrocytes, Mean / Exposure of subchondral bone, Mean / Fibrillation and/or fissure, Mean / Loss of chondrocytes, Mean / Loss of superficial layer, Mean / Lowered proteoglycan stainability, Mean / Histopathological score, Mean: group mean n=6
Description: Twelve 11- to 12-week-old male rabbits (Kbs:NZW) were used. Rabbits were reared in separate cages (one rabbit per cage) at 14.4° C. to 24.9° C. under light (12 hours from 7:00 am to 7:00 pm) with continuous ventilation. Rabbits were allowed to eat 150 g of feed (CR-3, CLEA Japan, Inc.) per day and to drink tap water.
(9Z)-9-Octadecenoic acid-(2-hydroxy-2-oxide-1,2-oxaphospholan-4-yl)methyl ester sodium salt (C18:1-cPA; hereafter, referred to as “ScPA”) was used.
Hair in the vicinity of the knee joint of the right hind limb of a rabbit was shaved using electrical clippers under deep anesthesia, and the shaved area was disinfected with Isodine. The outer coat on the medial aspect of the right hind limb was incised with a surgical knife, the boundary between the medial aspect and the articular capsule of the patellofemoral ligament was further incised, and the medial patellofemoral ligament was then dissected. Thereafter, the articular capsule was spread wide open to expose the medial meniscus, which was then completely removed. Following the removal of the meniscus, tissue and epidermis in the vicinity of the articular capsule were sutured. At the time of suturing, the site of operation was washed with physiological saline (titer: 500 mg/20 ml) containing antibiotics (Viccillin, Meiji Seika Pharma Co., Ltd.).
After the model animals were prepared, they were divided into two groups each consisting of 6 individuals while averaging body […] (i.e., the vehicle administered group of Animal Numbers 101 to 106 and the test substance (ScPA) administered group of Animal Numbers 201 to 206).
The test compound and the vehicle were administered in the manner described below. • Route of administration: into the joint cavity • Site of administration: right hind limb (treated limb) • Timing of administration: on days 7, 11, 14, 18, 21, 25, 28, 32, 35, and 39 • Dosage: Test compound: 10 μg/rabbit (volume: 0.2 ml) • Vehicle: 0.2 ml/rabbit • Means of administration: with the use of a 1.0-ml syringe (Terumo Corporation) and a 27 G injection needle (Terumo Corporation) (1-5) Pain Assessment (Weight Distribution Across both Hind Limbs) Frequency of Measurement:
Four limbs were dissected from the animals under deep anesthesia, causing them to bleed to death. Thereafter, the femur condyle and the tibial condyle were removed from the knee joint of the treated limb (the right hind limb), followed by fixation in a 10% neutral buffered formalin solution.
The femur and the tibia that had been soaked and fixed in a 10% neutral buffered formalin solution were subjected to demineralization with EDTA. After the completion of demineralization, the colored sites identified below were embedded in paraffin in accordance with a conventional technique, and the resultant was sliced to a thickness of 4 μm each. The slices were subjected to hematoxylin-eosin (HE) staining and safranin O (proteoglycan) staining and histopathologically examined under an optical microscope (BX51TF; OLYMPUS). The degree of cartilage degeneration of the pathological specimens was evaluated in accordance with the criteria shown in Table 1 below (Kikuchi, T, Yoneda, H. et al., Osteoarthritis cartilage, 4; p. 99 and continuing pages, 1996). Specifically, the specimens were evaluated in terms of loss of the following 8 items according to a five-grade evaluation (0 to +4): superficial layer; cartilage erosion; fibrillation and/or fissure; lowered proteoglycan stainability (safranin O stainability); disorganization of chondrocytes; loss of chondrocytes; exposure of subchondral bone; and cluster formation. The sum total score of all items was defined as the overall score. Observation items without specific criteria defined in Table 1 were evaluated in accordance with the criteria shown in Table 2 below (Naoki Ishiguro et al., Journal of Surgery, 29: p. 112 and continuing pages, 2010).

[1] = lateral condyle of femur, listed as Test substance, sodium salt
[2] = lateral condyle of tibia, listed as Test substance, sodium salt
[3] = medial condyle of femur, listed as Test substance, sodium salt
[4] = medial condyle of the femur, of 6 samples
[5] = medial condyle of the tibia, of 6 samples
[6] = medial condyle of tibia, listed as Test substance, sodium salt

CCCCCCCC/C=C\CCCCCCCC(=O)OCC1COP(=O)([O-])C1.[Na+] (stereo not shown) [ScPA, (9Z)-9-Octadecenoic acid-(2-hydroxy-2-oxide-1,2-oxaphospholan-4-yl)methyl ester sodium salt]
cartilage erosion in histopathological image (FIG. 12 B) (Animal No. 201, medial aspect of the right femur, HE staining): slight
joint cartilage change in histopathological image (FIG. 12 D) (Animal No. 201, medial aspect of the right femur, SO staining): no change
Cluster formation (lateral condyle of femur): 0
Disorganization of chondrocytes (lateral condyle of femur): 0
Exposure of subchondral bone (lateral condyle of femur): 0
Fibrillation and/or fissure (lateral condyle of femur): 0
Loss of chondrocytes (lateral condyle of femur): 0
Lowered proteoglycan stainability (lateral condyle of femur): 0
Cartilage erosion [1]: 0 (4×) and 1 (2×)
Loss of superficial layer [1]: 0 (4×) and 1 (2×)
Histopathological score [1]: 0 (4×) and 2 (2×)
Cartilage erosion (lateral condyle of tibia): 0
Cluster formation (lateral condyle of tibia): 0
Disorganization of chondrocytes (lateral condyle of tibia): 0
Exposure of subchondral bone (lateral condyle of tibia): 0
Fibrillation and/or fissure (lateral condyle of tibia): 0
Loss of chondrocytes (lateral condyle of tibia): 0
Loss of superficial layer (lateral condyle of tibia): 0
Lowered proteoglycan stainability [2]: 0 (3×) and 1 (3×)
Histopathological score [2]: 0 (3×) and 1 (3×)
damages resulting from the preparation of osteoarthritis models (lateral condyles of the femur and of the tibia): substantially no damages
Cartilage erosion, Mean (medial condyle of femur): 1.17
Cluster formation, Mean (medial condyle of femur): 2.17
Disorganization of chondrocytes, Mean (medial condyle of femur): 0.83
Exposure of subchondral bone, Mean (medial condyle of femur): 0.33
Fibrillation and/or fissure, Mean (medial condyle of femur): 0.67
Loss of chondrocytes, Mean (medial condyle of femur): 0.83
Loss of superficial layer, Mean (medial condyle of femur): 1.17
Lowered proteoglycan stainability, Mean (medial condyle of femur): 1.17
Histopathological score, Mean (medial condyle of femur, p=0.0649 vs vehicle, listed as Test substance, sodium salt): 8.33
Histopathological score, Mean (medial condyle of femur, p=0.0649 vs vehicle, listed as test substance, sodium salt): 8.33±2.51
Cartilage erosion [3]: 1 (4×) and 0 and 3
Cluster formation [3]: 2 (4×) and 4 and 1
Disorganization of chondrocytes [3]: 0 and 1 (5×)
Exposure of subchondral bone [3]: 0 (5×) and 2
Fibrillation and/or fissure [3]: 1 and 0 (4×) and 3
Loss of chondrocytes [3]: 0 (3×) and 1 (2×) and 3
Loss of superficial layer [3]: 1 (4×) and 0 and 3
Lowered proteoglycan stainability [3]: 1 (2×) and 2 and 0 (2×) and 3
Histopathological score [3]: 6 (2×) and 10 and 3 and 20 and 5
Histopathological score (medial condyle of femur, listed as test substance, sodium salt): 6 (2×) and 5 and 10 and 3 and 20
samples in which cartilage erosion was observed [4]: 5
samples in which cluster formation was observed [4]: 6
samples in which disorganization of chondrocytes was observed [4]: 5
samples in which loss of cartilage superficial layer was observed [4]: 5
samples with changes lesser than those observed in the vehicle administered group [4]: 4
histopathological scores compared with the vehicle administered group (medial condyle of the femur, p=0.0649): lower than those of the vehicle administered group
samples in which cartilage fibrillation and/or fissure was observed [5]: 6
samples in which loss of cartilage superficial layer was observed [5]: 5
samples in which lowered proteoglycan stainability was observed [5]: 5
Cartilage erosion, Mean (medial condyle of tibia): 1.17
Cluster formation, Mean (medial condyle of tibia): 1.50
Disorganization of chondrocytes, Mean (medial condyle of tibia): 1.33
Exposure of subchondral bone, Mean (medial condyle of tibia): 0.50
Fibrillation and/or fissure, Mean (medial condyle of tibia): 1.50
Loss of chondrocytes, Mean (medial condyle of tibia): 0.67
Loss of superficial layer, Mean (medial condyle of tibia): 2.00
Lowered proteoglycan stainability, Mean (medial condyle of tibia): 1.83
Histopathological score, Mean (medial condyle of tibia, p=0.6991 vs vehicle, listed as Test substance, sodium salt): 10.50
Histopathological score, Mean (medial condyle of tibia, p=0.6991 vs vehicle, listed as test substance, sodium salt): 10.50±3.91
Cartilage erosion [6]: 2 and 1 (2×) and 0 (2×) and 3
Cluster formation [6]: 4 and 1 (2×) and 0 (2×) and 3
Disorganization of chondrocytes [6]: 2 and 1 (2×) and 0 (2×) and 4
Exposure of subchondral bone [6]: 0 (5×) and 3
Fibrillation and/or fissure [6]: 1 (4×) and 3 and 2
Loss of chondrocytes [6]: 0 (4×) and 3 and 1
Loss of superficial layer [6]: 3 (2×) and 1 (2×) and 0 and 4
Lowered proteoglycan stainability [6]: 4 (2×) and 1 (3×) and 0
Histopathological score [6]: 16 and 6 and 1 and 27 and 9 and 4
Histopathological score (medial condyle of tibia, listed as test substance, sodium salt): 4 and 16 and 6 and 1 and 27 and 9
